# In patent US9725445B2, “Cycloalkyl nitrile pyrazolo pyridones as Janus kinase inhibitors” (Merck Sharp & Dohme Corp., priority 2013, dated 2017):
# Legend:
# JAK1 = JAK1 (Homo sapiens (Human), UniProt P23458); test: Jak biochemical HTRF assay, JAK1; conditions: HTRF biochemical assay, recombinant GST-tagged catalytic domain; read-out: JAK1 IC50
# JAK2 = JAK2 (Homo sapiens (Human), UniProt O60674); test: Jak biochemical HTRF assay, JAK2; conditions: HTRF biochemical assay, recombinant GST-tagged catalytic domain; read-out: JAK2 IC50
# Sequence of JAK2 (O60674 849-1124): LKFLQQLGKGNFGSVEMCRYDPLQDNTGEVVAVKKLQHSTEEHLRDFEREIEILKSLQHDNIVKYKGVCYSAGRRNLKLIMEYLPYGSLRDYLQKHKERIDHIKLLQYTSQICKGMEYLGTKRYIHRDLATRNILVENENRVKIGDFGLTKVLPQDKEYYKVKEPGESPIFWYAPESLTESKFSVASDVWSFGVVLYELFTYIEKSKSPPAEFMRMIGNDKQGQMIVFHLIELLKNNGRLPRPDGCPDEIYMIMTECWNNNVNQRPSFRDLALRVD
# Sequence of JAK1 (P23458 875-1153): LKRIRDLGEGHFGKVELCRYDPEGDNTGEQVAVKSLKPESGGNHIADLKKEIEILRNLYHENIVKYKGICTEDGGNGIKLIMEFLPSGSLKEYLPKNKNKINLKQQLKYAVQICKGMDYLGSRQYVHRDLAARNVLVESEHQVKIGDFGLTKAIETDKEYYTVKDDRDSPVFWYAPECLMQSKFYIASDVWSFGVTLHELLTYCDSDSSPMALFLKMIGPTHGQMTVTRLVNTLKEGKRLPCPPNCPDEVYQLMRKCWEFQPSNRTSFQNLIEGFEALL
Compound,IC50 (JAK1),IC50 (JAK2)
"N#C[C@H]1CCCC[C@@H]1n1nc(Nc2cccc(CN3CCOCC3)c2)c2c(=O)[nH]ccc21 [Example 3-33, (1S,2S)-2-(3-{[3-(morpholin-4-ylmethyl)phenyl]amino}-4-oxo-4,5-dihydro-1H-pyrazolo[4,3-c]pyridin-1-yl)cyclohexanecarbonitrile]",1.3 nM,1.7 nM
"CC(C)(O)c1cn(Cc2cccc(Nc3nn([C@H]4CCCC[C@@H]4C#N)c4cc[nH]c(=O)c34)c2)nn1 [Example 3-84, (1S,2S)-2-{3-[(3-{[4-(1-hydroxy-1-methylethyl)-1H-1,2,3-triazol-1-yl]methyl}phenyl)amino]-4-oxo-4,5-dihydro-1H-pyrazolo[4,3-c]pyridin-1-yl}cyclohexanecarbonitrile]",0.52 nM,2.6 nM
"N#C[C@H]1CCCC[C@@H]1n1nc(Nc2ccc(C3(O)COC3)cc2)c2c(=O)[nH]ccc21 [Example 15-9, (1S,2S)-2-(3-{[4-(3-hydroxyoxetan-3-yl)phenyl]amino}-4-oxo-4,5-dihydro-1H-pyrazolo[4,3-c]pyridin-1-yl)cyclohexanecarbonitrile]",0.32 nM,1.1 nM
"N#C[C@@H]1CCC[C@H]1n1nc(Nc2ccnc(F)c2)c2c(=O)[nH]ccc21 [Example 3-93, (1R,2R)-2-{3-[(2-fluoropyridin-4-yl)amino]-4-oxo-4,5-dihydro-1H-pyrazolo[4,3-c]pyridin-1-yl}cyclopentanecarbonitrile]",12 nM,48 nM
"N#C[C@H]1CCCC[C@@H]1n1nc(Nc2ccc(S(=O)(=O)N3CCOCC3)cc2)c2c(=O)[nH]ccc21 [Example 3-24, (1S,2S)-2-(3-{[4-(morpholin-4-ylsulfonyl)phenyl]amino}-4-oxo-4,5-dihydro-1H-pyrazolo[4,3-c]pyridin-1-yl)cyclohexanecarbonitrile]",0.15 nM,0.47 nM
"N#C[C@H]1CCC[C@@H]1n1nc(Nc2ccc(C(N)C(F)(F)F)cc2)c2c(=O)[nH]ccc21 (single isomer, unassigned) [Example 3-104, (1S,2S)-2-[3-({4-[(1S or 1R)-1-amino-2,2,2-trifluoroethyl]phenyl}amino)-4-oxo-4,5-dihydro-1H-pyrazolo[4,3-c]pyridin-1-yl]cyclopentanecarbonitrile]",0.22 nM,0.59 nM
"CC(O)(CO)c1cc(Nc2nn([C@H]3CCCC[C@@H]3C#N)c3cc[nH]c(=O)c23)ccc1S(C)(=O)=O (stereo partly drawn) [Example 3-87, (1S,2S)-2-(3-{[3-(1,2-dihydroxy-1-methylethyl)-4-(methylsulfonyl)phenyl]amino}-4-oxo-4,5-dihydro-1H-pyrazolo[4,3-c]pyridin-1-yl)cyclohexanecarbonitrile]",0.25 nM,0.95 nM
"C[C@H](NC1CCC(n2nc(Nc3ccc(Cl)cc3)c3c(=O)[nH]ccc32)C(C#N)C1)C1CC1 (stereo in doubt) [Example 4-1, (1R,2R,5S)-2-(3-((4-Chlorophenyl)amino)-4-oxo-4,5-dihydro-1H-pyrazolo[4,3-c]pyridin-1-yl)-5-(((S)-1-cyclopropylethyl)amino)cyclohexanecarbonitrile]",5.3 nM,122 nM
"N#C[C@H]1CCC[C@@H]1n1nc(Nc2ccc(C(O)C(F)(F)F)cc2)c2c(=O)[nH]ccc21 (stereo partly drawn) [Example 3-98, (1S,2S)-2-(4-oxo-3-{[4-(2,2,2-trifluoro-1-hydroxyethyl)phenyl]amino}-4,5-dihydro-1H-pyrazolo[4,3-c]pyridin-1-yl)cyclopentanecarbonitrile]",0.075 nM,0.53 nM
"CC(C)(C)OC(=O)NCc1cccc(Nc2nn([C@H]3CCCC[C@@H]3C#N)c3cc[nH]c(=O)c23)c1 [Example 3-16, tert-butyl [3-({1-[(1S,2S)-2-cyanocyclohexyl]-4-oxo-4,5-dihydro-1H-pyrazolo[4,3-c]pyridin-3-yl}amino)benzyl]carbamate]",1.4 nM,3.3 nM
"CS(=O)(=O)c1ccc(Nc2nn([C@@H]3CCCC[C@H]3C#N)c3cc[nH]c(=O)c23)cc1 [Example 3-4, (1R,2R)-2-(3-{[4-(methylsulfonyl)phenyl]amino}-4-oxo-4,5-dihydro-1H-pyrazolo[4,3-c]pyridin-1-yl)cyclohexanecarbonitrile]",9.4 nM,16 nM
"Cc1cc(Nc2nn([C@@H]3CCCCC[C@H]3C#N)c3cc[nH]c(=O)c23)ccc1C(O)C(F)(F)F (single isomer, unassigned) [Example 15-68, (1R,2R or 1S,2S)-2-[3-({3-methyl-4-[(1R or 1S)-2,2,2-trifluoro-1-hydroxyethyl]phenyl}amino)-4-oxo-4,5-dihydro-1H-pyrazolo[4,3-c]pyridin-1-yl]cycloheptanecarbonitrile]",0.26 nM,1.2 nM
"N#C[C@H]1CCCC[C@@H]1n1nc(Nc2ccc3c(c2)CC2(CCOCC2)S3(=O)=O)c2c(=O)[nH]ccc21 [Example 21-3, (1S,2S)-2-{3-[(1,1-dioxido-2′,3′,5′,6′-tetrahydro-3H-spiro[1-benzothiophene-2,4′-pyran]-5-yl)amino]-4-oxo-4,5-dihydro-1H-pyrazolo[4,3-c]pyridin-1-yl}cyclohexanecarbonitrile]",0.069 nM,0.18 nM
"N#C[C@@H]1CCCC[C@H]1n1nc(Nc2ccc(CS(=O)(=O)N3CCCC3)cc2)c2c(=O)[nH]ccc21 [Example 3-3, (1R,2R)-2-(4-oxo-3-((4-((pyrrolidin-1-ylsulfonyl)methyl)phenyl)amino)-4,5-dihydro-1H-pyrazolo[4,3-c]pyridin-1-yl)cyclohexanecarbonitrile]",6.1 nM,21 nM
"N#C[C@H]1CCCC[C@@H]1n1nc(Nc2ccc3c(c2)CN([C@H]2CC[C@H](C(=O)O)CC2)S3(=O)=O)c2c(=O)[nH]ccc21 [Example 16-3, (1R,4R)-4-(5-((1-((1S,2S)-2-cyanocyclohexyl)-4-oxo-4,5-dihydro-1H-pyrazolo[4,3-c]pyridin-3-yl)amino)-1,1-dioxidobenzo[d]isothiazol-2(3H)-yl)cyclohexanecarboxylic acid]",0.059 nM,0.14 nM
"N#C[C@H]1CCC[C@@H]1n1nc(Nc2ccnc(F)c2)c2c(=O)[nH]ccc21 [Example 3-92, (1S,2S)-2-{3-[(2-fluoropyridin-4-yl)amino]-4-oxo-4,5-dihydro-1H-pyrazolo[4,3-c]pyridin-1-yl}cyclopentanecarbonitrile]",0.64 nM,5.7 nM
"CNS(=O)(=O)c1ccc(Nc2nn([C@H]3CCCC[C@@H]3C#N)c3cc[nH]c(=O)c23)cc1 [Example 3-144, 4-({1-[(1S,2S)-2-cyanocyclohexyl]-4-oxo-4,5-dihydro-1H-pyrazolo[4,3-c]pyridin-3-yl}amino)-N-methylbenzenesulfonamide]",0.099 nM,0.59 nM

# Other lines, results leading:
IC50 (JAK1),IC50 (JAK2),Compound
0.31 nM,0.86 nM,"N#C[C@H]1CCCC[C@@H]1n1nc(Nc2ccc3c(c2)CNC3)c2c(=O)[nH]ccc21 [Example 12-1, (1S,2S)-2-(3-(Isoindolin-5-ylamino)-4-oxo-4,5-dihydro-H-pyrazolo[4,3-c]pyridin-1-yl)cyclohexanecarbonitrile]"
0.069 nM,0.48 nM,"CC(C)(C)N1Cc2cc(Nc3nn([C@H]4CCCC[C@@H]4C#N)c4cc[nH]c(=O)c34)ccc2C1=O [Example 15-20, (1S,2S)-2-{3-[(2-tert-butyl-1-oxo-2,3-dihydro-1H-isoindol-5-yl)amino]-4-oxo-4,5-dihydro-1H-pyrazolo[4,3-c]pyridin-1-yl}cyclohexanecarbonitrile]"
0.22 nM,0.72 nM,"N#C[C@H]1CCCC[C@@H]1n1nc(Nc2ccc3c(c2)CNC3C(F)F)c2c(=O)[nH]ccc21 (single isomer, unassigned) [Example 15-27, (1S,2S)-2-(3-{[(1R or 1S)-1-(difluoromethyl)-2,3-dihydro-1H-isoindol-5-yl]amino}-4-oxo-4,5-dihydro-1H-pyrazolo[4,3-c]pyridin-1-yl)cyclohexanecarbonitrile]"
0.41 nM,2.1 nM,"CCN1Cc2ccc(Nc3nn([C@H]4CCCC[C@@H]4C#N)c4cc[nH]c(=O)c34)cc2C1 [Example 3-76, (1S,2S)-2-{3-[(2-ethyl-2,3-dihydro-1H-isoindol-5-yl)amino]-4-oxo-4,5-dihydro-1H-pyrazolo[4,3-c]pyridin-1-yl}cyclohexanecarbonitrile]"
0.083 nM,0.41 nM,"CC(C)CN1Cc2cc(Nc3nn([C@H]4CCCC[C@@H]4C#N)c4cc[nH]c(=O)c34)ccc2S1(=O)=O [Example 3-62, (1S,2S)-2-(3-{[2-(2-methylpropyl)-1,1-dioxido-2,3-dihydro-1,2-benzisothiazol-5-yl]amino}-4-oxo-4,5-dihydro-1H-pyrazolo[4,3-c]pyridin-1-yl)cyclohexanecarbonitrile]"
0.066 nM,0.55 nM,"COCCN1Cc2cc(Nc3nn([C@H]4CCCC[C@@H]4C#N)c4cc[nH]c(=O)c34)ccc2S1(=O)=O [Example 3-83, (1S,2S)-2-(3-{[2-(2-methoxyethyl)-1,1-dioxido-2,3-dihydro-1,2-benzisothiazol-5-yl]amino}-4-oxo-4,5-dihydro-1H-pyrazolo[4,3-c]pyridin-1-yl)cyclohexanecarbonitrile]"
0.062 nM,0.14 nM,"CC1(N2Cc3cc(Nc4nn([C@H]5CCCC[C@@H]5C#N)c5cc[nH]c(=O)c45)ccc3C2=O)CCOCC1 [Example 15-63, (1S,2S)-2-(3-{[2-(4-methyltetrahydro-2H-pyran-4-yl)-1-oxo-2,3-dihydro-1H-isoindol-5-yl]amino}-4-oxo-4,5-dihydro-1H-pyrazolo[4,3-c]pyridin-1-yl)cyclohexanecarbonitrile]"
0.026 nM,0.29 nM,"CN1Cc2cc(Nc3nn([C@H]4CCCC[C@@H]4C#N)c4cc[nH]c(=O)c34)ccc2S1(=O)=O [Example 3-49, (1S,2S)-2-{3-[(2-methyl-1,1-dioxido-2,3-dihydro-1,2-benzisothiazol-5-yl)amino]-4-oxo-4,5-dihydro-1H-pyrazolo[4,3-c]pyridin-1-yl}cyclohexanecarbonitrile]"
